Test results published in the NIST ThermoML archive (doi:10.1021/je060271a).

Conditions: 323.15 K, Liquid, Vibrating tube method

CCCCCC(=O)OCC(COC(=O)CCCCC)(COC(=O)CCCCC)COC(=O)CCCCC [pentaerythritol tetrahexanoate]
Conditions | mass density [kg/m3]
1417.8 kPa | 973.7
1423 kPa | 973.6
1428.2 kPa | 973.6
1434.7 kPa | 973.7
1469.9 kPa | 973.8
1475.5 kPa | 973.7
1482.4 kPa | 973.8
1487.6 kPa | 973.7
1494.2 kPa | 973.8
1505.5 kPa | 973.8
1510.7 kPa | 973.7
1517 kPa | 973.8
1522.7 kPa | 973.9
1529.6 kPa | 973.7
1536.8 kPa | 973.7
1600 kPa | 973.8
1606.9 kPa | 973.8
1612.8 kPa | 973.9
1619 kPa | 973.7
1626.3 kPa | 973.9
1632.1 kPa | 973.7
1639.4 kPa | 973.9
1645.6 kPa | 973.8
1653.1 kPa | 973.9
1660 kPa | 973.9
1667 kPa | 973.8
1674.8 kPa | 973.9
1682.8 kPa | 973.8
1689 kPa | 973.9
1695.8 kPa | 973.9
1703.9 kPa | 974
1710.5 kPa | 973.9
1718.3 kPa | 974
1725.1 kPa | 973.9
1732.7 kPa | 973.7
1739.2 kPa | 973.8
1747.3 kPa | 973.9
1753.9 kPa | 973.9
1761.9 kPa | 974
1770.6 kPa | 973.9
1777.5 kPa | 974
1896.8 kPa | 974
1906.3 kPa | 974
1914.3 kPa | 974.1
1923.6 kPa | 973.9
1931.8 kPa | 974
1940.3 kPa | 974
1947.8 kPa | 974
1956.8 kPa | 974.1
1966 kPa | 974
1973.3 kPa | 974
1981.3 kPa | 974.1
1990.8 kPa | 974.2
2115.6 kPa | 974
2124.4 kPa | 974.1
2134.6 kPa | 974.2
2174 kPa | 974.2
2184.9 kPa | 974.2
2193.8 kPa | 974.2
2203.2 kPa | 974.3
2214.3 kPa | 974.2
2223.5 kPa | 974.3
2234.2 kPa | 974.3
2245.5 kPa | 974.4
2255 kPa | 974.4
2264.6 kPa | 974.2
2495.1 kPa | 974.6
2505.3 kPa | 974.6
2517.8 kPa | 974.5
2528.6 kPa | 974.4
2541.1 kPa | 974.5
2553.7 kPa | 974.6
2564.1 kPa | 974.4
2574.7 kPa | 974.3
2587.7 kPa | 974.5
2599.7 kPa | 974.4
2609.9 kPa | 974.6
2622.2 kPa | 974.5
2632.1 kPa | 974.6
2642.3 kPa | 974.5
2654.5 kPa | 974.6
2664.9 kPa | 974.6
2676.8 kPa | 974.6
2689.2 kPa | 974.6
2699.9 kPa | 974.4
2710 kPa | 974.6
2722.3 kPa | 974.6
2732.8 kPa | 974.6
2745.2 kPa | 974.6
2758 kPa | 974.5
2768.6 kPa | 974.7
2779.1 kPa | 974.7
2791.8 kPa | 974.6
2801.9 kPa | 974.7
2814.5 kPa | 974.7
2827.5 kPa | 974.6
2837.8 kPa | 974.7
2849 kPa | 974.6
2862 kPa | 974.6
2872.9 kPa | 974.7
2885.9 kPa | 974.7
2910.2 kPa | 974.8
2921.8 kPa | 974.6
2946.6 kPa | 974.8
2960 kPa | 974.8
3369.6 kPa | 975.1
3401.3 kPa | 975.1
3416.4 kPa | 975.1
3430.9 kPa | 975.1
3448.4 kPa | 975.1
3481 kPa | 975.1
3512.7 kPa | 975.1
3527.3 kPa | 975.1
3544.2 kPa | 975.1
3557.7 kPa | 975.2
3574.4 kPa | 975.2
3588.4 kPa | 975.2
3605 kPa | 975.1
3619.2 kPa | 975.1
3805.2 kPa | 975.3
3820 kPa | 975.3
3837.5 kPa | 975.4
3851.8 kPa | 975.4
3869.3 kPa | 975.5
3886.8 kPa | 975.5
3901.9 kPa | 975.4
3917 kPa | 975.4
3935.3 kPa | 975.5
3950.4 kPa | 975.4
3968.8 kPa | 975.5
3984.3 kPa | 975.5
4002.9 kPa | 975.4
4018.6 kPa | 975.5
4034.4 kPa | 975.4
4138.3 kPa | 975.6
4157.9 kPa | 975.5
4209.5 kPa | 975.6
4228.7 kPa | 975.6
4245.5 kPa | 975.7
4265.2 kPa | 975.6
4281.8 kPa | 975.7
4301.8 kPa | 975.7
4319.1 kPa | 975.8
4339.5 kPa | 975.8
